US20100222421A1, “Usage of Baicalein in the Preparation of a Pharmaceutical Composition for the Treatment of Traumatic Brain Injury” (National Defense Medical Center, priority 2009, published 2010)

Tests used:
[1] = system: rats with controlled cortical impact (CCI) injury; assay: Beam walk test after CCI injury; assay type: in vivo, rat
Protocol: A previously described CCI injury procedure was utilized (Chen et al., 2003). Male Sprague-Dawley rats, which have body weight of 250-300 g, were anaesthetized with sodium pentobarbital (i.p.; 50 mgkg^−1; Rhone Merieux, Harlow, UK) and placed in a stereotaxic frame. A 5-mm craniotomy was performed over the left parietal cortex, centered on the coronal suture and 3 mm lateral to the sagittal suture. Considerable care was taken to avoid injury to the underlying dura. Injury was made using a pneumatic piston with a rounded metal tip (2.5 mm diameter) that was angled 22.5° C. to the vertical so that the tip was perpendicular with the brain surface at the centre of the craniotomy. A velocity of 4 ms^−1 and a deformation depth 2 mm below the dura were used. The bone flap was immediately replaced and sealed, and the scalp was closed with sutures. Body temperature was monitored throughout the surgery by a rectal probe; temperature was maintained at 37.0±0.5° C. using a heated pad. Rats were placed in a heated cage to maintain body temperature, while recovering from anaesthesia. Baicalein (30 mg kg^−1) dissolved in 10% dimethyl sulphoxide (0.25-0.3 mL) or a corresponding volume of vehicle (10% dimethyl sulphoxide) was administered i.p. immediately following injury or daily for 4 days (immediately, 25, 49 and 73 h) after injury. Behaviour testing using the rotarod, tactile adhesive removal, mNSS and beam walk tests was performed at 28 hours as well as 4, 7, 14, 21 and 28 days post-injury. At 14 and 28 days, the animals were killed, perfused intravascularly and their brains were processed with cresyl violet staining to assess contusion volume (n=8 for each group). […] Behaviour testing was performed before CCI and at […] by an observer who was unaware of the experimental treatments. The battery of tests consisted of the rotarod motor test, tactile adhesive-removal somatosensory test, mNSS and beam walk test. Animals were pretrained for 3 days for the rotarod, tactile adhesiveremoval somatosensory and beam walk tests (see below). The beam walk test was utilized to evaluate fine motor coordination and function (Feeney et al., 1982). Rats escaped from a bright light and loud white noise by walking along a narrowed wooden beam (2.5×122.0 cm) to enter a darkened goal box at the opposite end of the beam. The latency for the rat to reach the goal box (not to exceed 60 s) and hindlimb performance as he traversed the beam (based on a 1-7 rating scale) were recorded. A score of 7 was given when animals traversed the beam with two or less foot slips. A score of 6 was given when animals traversed the beam with less than 50% foot slips. A score of 5 was given for more than 50% but less than 100% foot slips. A score of 4 was given for 100% foot slips. A score of 3 was given for traversal with the affected limb extended and not reaching the surface of the beam. A score of 2 was given when the animal was able to balance on the beam but not traverse it. A score of 1 was given when the animal could not balance on the beam. Three trials were recorded 1 hour before CCI (baseline), and each day after CCI. Mean values of latency and score for each day were computed.

TNF-α protein = assay: ELISA, TNF-α protein after CCI injury; assay type: in vivo, rat; details: single-dose 30 mg kg^-1 i.p.; ipsilateral cortex, 1 day post-injury; P<0.05
Protocol: A previously described CCI injury procedure was utilized (Chen et al., 2003). Male Sprague-Dawley rats, which have body weight of 250-300 g, were anaesthetized with sodium pentobarbital (i.p.; 50 mgkg^−1; Rhone Merieux, Harlow, UK) and placed in a stereotaxic frame. A 5-mm craniotomy was performed over the left parietal cortex, centered on the coronal suture and 3 mm lateral to the sagittal suture. Considerable care was taken to avoid injury to the underlying dura. Injury was made using a pneumatic piston with a rounded metal tip (2.5 mm diameter) that was angled 22.5° C. to the vertical so that the tip was perpendicular with the brain surface at the centre of the craniotomy. A velocity of 4 ms^−1 and a deformation depth 2 mm below the dura were used. […] Body temperature was monitored throughout the surgery by a rectal probe; temperature was maintained at 37.0±0.5° C. using a heated pad. […]
Single-dose baicalein (30 mg kg^−1) or a corresponding volume of vehicle was administered i.p. immediately following injury. […] Testing after injury was as follows: (1) real-time quantitative RT-PCR analysis for TNF-α, IL-1β and IL-6 mRNA expression at 6 h post-injury (n=7 for each group); (2) FluoroJade B (FJB) staining, TNF-α, IL-1β and IL-6 immunohistochemistry, as well as ELISA at 24 h post-injury to assess degenerative neurons and to determine cytokine expression (n=7 for each group). […]

O=c1cc(-c2ccccc2)oc2cc(O)c(O)c(O)c12 [baicalein]
differences in hindlimb motor scores between single-dose and multiple-dose groups ([1]; 30 mg kg^-1 i.p., any testing day, P>0.05): not significant
beam walk latencies, multiple-dose versus single-dose group ([1]; 30 mg kg^-1 i.p., days 1 and 4, P<0.05): significantly shorter
beam walk latencies versus vehicle group ([1]; multiple-dose 30 mg kg^-1 i.p. daily for 4 days, days 1, 4, 7, 21 and 28, P<0.05): significantly shorter
decrease in hindlimb motor scores (beam walk) versus vehicle group ([1]; multiple-dose 30 mg kg^-1 i.p. daily for 4 days, days 1, 4, 14, 21 and 28, P<0.05): significantly different
decrease in hindlimb motor scores (beam walk) versus vehicle group ([1]; single-dose 30 mg kg^-1 i.p., days 4, 7, 14 and 21, P<0.05): significantly different
beam walk latencies versus vehicle group ([1]; single-dose 30 mg kg^-1 i.p., days 4 and 21, P<0.05): significantly shorter
TNF-α protein concentration, % of concentration in vehicle-treated rats (TNF-α protein): 54%
